Assay [1] deals with lysozyme (Gallus gallus, UniProt P00698). The assay is described as follows: SPR adsorption of lysozyme to SAMs / grafted polymer films. The class given is binding. As to conditions: for % Lysoff (percent decrease in adsorbed protein during 10 minute PBS wash) / dR/dton lysozyme (maximum initial rate of adsorption) / % MLlys 3 min / % MLlys 30 min: mixed SAM —CONRR′/—CO2H; for % MLlys 3 min: 1 mg/mL lysozyme flowed 3 min; for % MLlys 30 min: 1 mg/mL lysozyme flowed 30 min.

The target in assay [2] is T1, fibrinogen (Bos taurus, UniProt P02672+P02676+P12799).
T1 sequence (P02672 20-615): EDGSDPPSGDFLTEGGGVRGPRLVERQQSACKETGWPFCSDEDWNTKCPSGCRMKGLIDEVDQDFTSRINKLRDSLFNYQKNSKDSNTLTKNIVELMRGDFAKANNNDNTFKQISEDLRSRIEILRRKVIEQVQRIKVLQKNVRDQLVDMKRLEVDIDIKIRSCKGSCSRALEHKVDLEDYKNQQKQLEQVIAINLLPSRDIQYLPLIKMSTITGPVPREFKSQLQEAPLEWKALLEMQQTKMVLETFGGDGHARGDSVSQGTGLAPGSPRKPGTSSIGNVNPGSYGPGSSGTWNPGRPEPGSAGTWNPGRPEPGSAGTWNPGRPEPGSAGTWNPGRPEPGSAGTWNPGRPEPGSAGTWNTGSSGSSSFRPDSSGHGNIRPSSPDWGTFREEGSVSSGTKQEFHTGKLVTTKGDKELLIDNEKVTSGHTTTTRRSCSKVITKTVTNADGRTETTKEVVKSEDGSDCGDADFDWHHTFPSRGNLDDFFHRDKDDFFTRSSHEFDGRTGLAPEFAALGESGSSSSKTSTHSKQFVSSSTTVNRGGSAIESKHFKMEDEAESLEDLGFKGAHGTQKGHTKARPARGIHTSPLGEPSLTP
T1 sequence (P02676 1-468): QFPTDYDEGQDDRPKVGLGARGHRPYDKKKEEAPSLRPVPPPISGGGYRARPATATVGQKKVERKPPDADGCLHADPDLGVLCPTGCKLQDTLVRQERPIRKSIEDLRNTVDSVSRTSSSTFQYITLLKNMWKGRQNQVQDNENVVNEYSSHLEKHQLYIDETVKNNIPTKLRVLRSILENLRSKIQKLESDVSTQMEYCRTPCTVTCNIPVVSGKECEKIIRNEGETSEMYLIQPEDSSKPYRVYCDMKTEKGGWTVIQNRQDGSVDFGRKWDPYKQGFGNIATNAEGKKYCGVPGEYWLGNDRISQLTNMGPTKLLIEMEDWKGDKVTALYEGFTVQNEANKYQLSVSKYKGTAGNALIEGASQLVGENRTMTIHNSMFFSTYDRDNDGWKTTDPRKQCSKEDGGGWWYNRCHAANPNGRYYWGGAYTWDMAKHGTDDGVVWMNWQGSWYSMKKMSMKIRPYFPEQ
T1 sequence (P12799 25-444): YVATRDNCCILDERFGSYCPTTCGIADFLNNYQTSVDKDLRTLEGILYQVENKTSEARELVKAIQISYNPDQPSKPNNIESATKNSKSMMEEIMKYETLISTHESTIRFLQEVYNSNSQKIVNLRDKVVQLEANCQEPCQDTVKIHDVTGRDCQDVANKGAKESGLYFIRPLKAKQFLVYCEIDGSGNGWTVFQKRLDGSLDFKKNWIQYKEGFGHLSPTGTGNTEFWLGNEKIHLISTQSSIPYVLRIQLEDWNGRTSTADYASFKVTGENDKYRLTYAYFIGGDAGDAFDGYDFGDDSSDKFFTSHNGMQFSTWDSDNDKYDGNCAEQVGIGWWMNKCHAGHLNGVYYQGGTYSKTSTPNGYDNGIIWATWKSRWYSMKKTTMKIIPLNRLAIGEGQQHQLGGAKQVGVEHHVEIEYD
The assay is described as follows: SPR adsorption of fibrinogen to SAMs / grafted polymer films. It is filed as binding, bovine. The following applies: for % Fiboff (percent decrease in adsorbed protein during 10 minute PBS wash) / dR/dton fibrinogen (maximum initial rate of adsorption) / % MLfib 3 min / % MLfib 30 min: mixed SAM —CONRR′/—CO2H; for % MLfib 3 min: 1 mg/mL fibrinogen flowed 3 min, relative to —CONH(CH2)10CH3/—CO2H SAM; for % MLfib 30 min: 1 mg/mL fibrinogen flowed 30 min.

[3] abbreviates: lysozyme, single-component SAMs (a) and mixed SAMs (b).
[4] abbreviates: single-component SAMs (a) and mixed SAMs (b).
The mark [5] stands for this setting: fibrinogen, single-component SAMs (a) and mixed SAMs (b).

Chain of lysozyme (P00698 19-147): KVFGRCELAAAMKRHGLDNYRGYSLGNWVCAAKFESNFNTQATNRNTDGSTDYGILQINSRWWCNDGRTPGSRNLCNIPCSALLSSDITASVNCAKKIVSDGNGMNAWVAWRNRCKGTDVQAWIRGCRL

On to `CNCCNC`, for which, in assay [1], the “% Lysoff (percent decrease in adsorbed protein during 10 minute PBS wash)” value came out at 110 ± 5%, the “dR/dton lysozyme (maximum initial rate of adsorption)” value (“dR/dton lysozyme” below) is listed as 110 ± 60 RU/sec, the “% MLlys 3 min” value is on record as 4.3 ± 0.1% and the “% MLlys 30 min” value was determined as 7.8 ± 0.0%. Also, in assay [2], the “% Fiboff (percent decrease in adsorbed protein during 10 minute PBS wash)” value amounted to 7.5 ± 0.4%, the “dR/dton fibrinogen (maximum initial rate of adsorption)” value (from here on “dR/dton fibrinogen”) was found to be 77 ± 30 RU/sec, the “% MLfib 3 min” value is 4.4 ± 0.8% and the “% MLfib 30 min” value came out at 8.5 ± 0.0%.
Regarding `CC(=O)NCCN`, in assay [1], the “% Lysoff (percent decrease in adsorbed protein during 10 minute PBS wash)” value was determined as 580 ± 20%, the “dR/dton lysozyme” value was 530 ± 120 RU/sec, the “% MLlys 3 min” value came to 1.4 ± 0.0% and the “% MLlys 30 min” value came out at 5.4 ± 0.3%. For the same compound, in assay [2], the “% Fiboff (percent decrease in adsorbed protein during 10 minute PBS wash)” value was found to be 13 ± 1%, the “dR/dton fibrinogen” value worked out at 50 ± 5 RU/sec, the “% MLfib 3 min” value is on record as 14 ± 1% and the “% MLfib 30 min” value is 40 ± 2%.
Turning to `CN(C)C(=O)CN`, in assay [1], the “% Lysoff (percent decrease in adsorbed protein during 10 minute PBS wash)” value is listed as 350 ± 10%, the “dR/dton lysozyme” value turned out to be 590 ± 270 RU/sec, the “% MLlys 3 min” value came to 7.2 ± 1% and the “% MLlys 30 min” value was 15 ± 1%. In addition, in assay [2], the “% Fiboff (percent decrease in adsorbed protein during 10 minute PBS wash)” value came to 19 ± 0.2%, the “dR/dton fibrinogen” value is reported as 202 ± 80 RU/sec, the “% MLfib 3 min” value amounted to 18 ± 0.5% and the “% MLfib 30 min” value was 33 ± 0.5%.
Regarding `CNCC(=O)N(C)C`, in assay [1], the “% Lysoff (percent decrease in adsorbed protein during 10 minute PBS wash)” value was found to be 740 ± 9%, the “dR/dton lysozyme” value came out at 290 ± 130 RU/sec, the “% MLlys 3 min” value is given as 0.2 ± 0.1% and the “% MLlys 30 min” value amounted to 2.4 ± 0.3%. Besides, in assay [2], the “% Fiboff (percent decrease in adsorbed protein during 10 minute PBS wash)” value stood at 28 ± 0.7%, the “dR/dton fibrinogen” value amounted to 50 ± 23 RU/sec, the “% MLfib 3 min” value is given as 1.0 ± 0.0% and the “% MLfib 30 min” value turned out to be 9.1 ± 0.3%.
As to `NCC1COCCOCCOCCOCCOCCO1` (stereo not shown), in assay [1], the “% Lysoff (percent decrease in adsorbed protein during 10 minute PBS wash)” value turned out to be 14 ± 1.3%, the “dR/dton lysozyme” value is 75 ± 40 RU/sec, the “% MLlys 3 min” value is recorded as 3.9 ± 0.3% and the “% MLlys 30 min” value is 9.6 ± 0.5%. Further, in assay [2], the “% Fiboff (percent decrease in adsorbed protein during 10 minute PBS wash)” value turned out to be 9.7 ± 0.5%, the “dR/dton fibrinogen” value is 320 ± 110 RU/sec, the “% MLfib 3 min” value turned out to be 44 ± 0.9% and the “% MLfib 30 min” value is on record as 59 ± 2.3%.
With `C1COCCOCCOCCOCCOCCN1`, in assay [1], the “% Lysoff (percent decrease in adsorbed protein during 10 minute PBS wash)” value was 72 ± 0.7%, the “dR/dton lysozyme” value was determined as 100 ± 50 RU/sec, the “% MLlys 3 min” value came out at 2.1 ± 0.4% and the “% MLlys 30 min” value amounted to 6.0 ± 0.5%. Further, in assay [2], the “% Fiboff (percent decrease in adsorbed protein during 10 minute PBS wash)” value is 9.6 ± 0.9%, the “dR/dton fibrinogen” value stood at 45 ± 20 RU/sec, the “% MLfib 3 min” value is 3.8 ± 0.7% and the “% MLfib 30 min” value came to 11 ± 0.3%.
Consider `Nc1ccc(O[C@@H]2O[C@H](CO)[C@@H](O)[C@H](O)[C@H]2O)cc1`, for which, in assay [1], the “% Lysoff (percent decrease in adsorbed protein during 10 minute PBS wash)” value is reported as 78 ± 1.7%, the “dR/dton lysozyme” value is listed as 1200 ± 270 RU/sec, the “% MLlys 3 min” value was found to be 27 ± 3.3% and the “% MLlys 30 min” value is reported as 83 ± 2.3%. Further, in assay [2], the “% Fiboff (percent decrease in adsorbed protein during 10 minute PBS wash)” value is 38 ± 0.8%, the “dR/dton fibrinogen” value came to 1200 ± 270 RU/sec, the “% MLfib 3 min” value was determined as 51 ± 1.8% and the “% MLfib 30 min” value came out at 67 ± 0.9%.
As to `N[C@H]1C(O)O[C@H](CO)[C@@H](O)[C@@H]1O` (stereo partly shown), in assay [1], the “% Lysoff (percent decrease in adsorbed protein during 10 minute PBS wash)” value came to 330 ± 0.2%, the “dR/dton lysozyme” value came out at 620 ± 280 RU/sec, the “% MLlys 3 min” value was 7.8 ± 0.2% and the “% MLlys 30 min” value is on record as 25 ± 2.1%. Moreover, in assay [2], the “% Fiboff (percent decrease in adsorbed protein during 10 minute PBS wash)” value is 11 ± 0.0%, the “dR/dton fibrinogen” value was 210 ± 120 RU/sec, the “% MLfib 3 min” value is 31 ± 0.7% and the “% MLfib 30 min” value came out at 55 ± 1.1%.
On to `Nc1ccc(O[C@@H]2O[C@H](CO)[C@H](O)[C@H](O)[C@H]2O)cc1`, for which, in assay [1], the “% Lysoff (percent decrease in adsorbed protein during 10 minute PBS wash)” value came to 254 ± 10%, the “dR/dton lysozyme” value was 1300 ± 260 RU/sec, the “% MLlys 3 min” value is listed as 11 ± 1.5% and the “% MLlys 30 min” value came out at 30 ± 3.3%. Moreover, in assay [2], the “% Fiboff (percent decrease in adsorbed protein during 10 minute PBS wash)” value is listed as 17 ± 0.7%, the “dR/dton fibrinogen” value amounted to 570 ± 250 RU/sec, the “% MLfib 3 min” value was determined as 35 ± 5% and the “% MLfib 30 min” value is reported as 49 ± 2.3%.
In the case of `Nc1ccc(O[C@@H]2O[C@H](CO)[C@@H](O[C@@H]3O[C@H](CO)[C@H](O)[C@H](O)[C@H]3O)[C@H](O)[C@H]2O)cc1`, in assay [1], the “% Lysoff (percent decrease in adsorbed protein during 10 minute PBS wash)” value was determined as 190 ± 16%, the “dR/dton lysozyme” value is 290 ± 120 RU/sec, the “% MLlys 3 min” value was determined as 3.7 ± 0.1% and the “% MLlys 30 min” value was found to be 9.3 ± 0.4%. Moreover, in assay [2], the “% Fiboff (percent decrease in adsorbed protein during 10 minute PBS wash)” value stood at 7.4 ± 0.4%, the “dR/dton fibrinogen” value was found to be 130 ± 80 RU/sec, the “% MLfib 3 min” value is reported as 17 ± 1.4% and the “% MLfib 30 min” value came out at 32 ± 0.5%.
In the case of `NC[C@H](O)[C@H](O)[C@H](O)[C@@H](O)CO`, in assay [1], the “% Lysoff (percent decrease in adsorbed protein during 10 minute PBS wash)” value stood at 290 ± 3%, the “dR/dton lysozyme” value is 970 ± 400 RU/sec, the “% MLlys 3 min” value was 13 ± 7% and the “% MLlys 30 min” value was found to be 20 ± 0.3%. In addition, in assay [2], the “% Fiboff (percent decrease in adsorbed protein during 10 minute PBS wash)” value is 4.8 ± 2%, the “dR/dton fibrinogen” value amounted to 820 ± 500 RU/sec, the “% MLfib 3 min” value was determined as 47 ± 12% and the “% MLfib 30 min” value was 68 ± 7%.
On to `CNC[C@H](OC)[C@H](OC)[C@H](OC)[C@H](COC)OC`, for which the “% ML 3 min” value in assay [1] (lysozyme, footnote b (30 minutes), single-component SAMs (a) and mixed SAMs (b)) was found to be 6.1 ±4%. In addition, in assay [1] (setting [3]), the “% ML 3 min” value is reported as 0.4 ±0.4% and the dR/dt on is 100 ±70 RU/sec. Further, in assay [1], the “% Lysoff (percent decrease in adsorbed protein during 10 minute PBS wash)” value amounted to 17 ± 40%, the “dR/dton lysozyme” value is reported as 100 ± 70 RU/sec, the “% MLlys 3 min” value is on record as 0.4 ± 0.4% and the “% MLlys 30 min” value was 6.1 ± 4%. The “% Lys off” value in assay [1] (setting [4]) turned out to be 17 ±40%. For the same compound, in assay [2] (setting [5]), the “% ML 30 min” value was 2.9 ±1.4% and the dR/dt on is 50 ±50 RU/sec. For the same compound, the “% ML 3 min” value in assay [2] (fibrinogen, single-component SAMs (a, RSH) and mixed SAMs (b, RNH2)) was determined as 0.8 ±0.5%. Moreover, in assay [2], the “% Fiboff (percent decrease in adsorbed protein during 10 minute PBS wash)” value is 18 ± 2%, the “dR/dton fibrinogen” value is 50 ± 50 RU/sec, the “% MLfib 3 min” value is 0.8 ± 0.5% and the “% MLfib 30 min” value was 2.9 ± 1.4%. Also, the “% Fib off” value in assay [2] (setting [4]) was 18 ±2%.
Consider `N#CCC(N)=C(C#N)C#N`, for which, in assay [1], the “% Lysoff (percent decrease in adsorbed protein during 10 minute PBS wash)” value is listed as 370 ± 20%, the “dR/dton lysozyme” value came to 1900 ± 400 RU/sec, the “% MLlys 3 min” value is on record as 13 ± 0.3% and the “% MLlys 30 min” value turned out to be 28 ± 3.7%. In assay [2], the “% Fiboff (percent decrease in adsorbed protein during 10 minute PBS wash)” value is 11 ± 0.0%, the “dR/dton fibrinogen” value turned out to be 260 ± 70 RU/sec, the “% MLfib 3 min” value is listed as 34 ± 1.1% and the “% MLfib 30 min” value is reported as 58 ± 3%.

The values are drawn from patent US7494714B2, “Surfaces that resist the adsorption of biological species” (President & Fellows of Harvard College, priority 2000, dated 2009).
